Series [1] has as its system αKlotho. The series is described as follows: Release of soluble αKlotho in supernatant of primary tubule cell cultures (RPTEC), ELISA. In kind it is cell-based. Conditions: for Average Klotho value: RPTEC supernatant. How it is done:
Concentrations of H2O2 equal to 0.1, 0.2, 0.5 up to 1 mM were also tested. […] The soluble aKlotho analysis was performed using the commercial test ELISA lbl code 277789 following the manufacturer's instructions. […] The soluble aKlotho analysis was performed using ELISA lbl test.
A general note: An ELISA detects its analyte on a solid surface through an enzyme-linked reagent.

The test system of series [2] is primary renal tubule cells. In words: MTT test, cell proliferation/viability of primary renal tubule cells. In kind it is cell-based. Conditions: tubule cells exposed to H2O2 0.5 mM alone.

For `C[N+](C)(C)C[C@H](O)CC(=O)[O-]` [Carnitine, L-Carnitine], the “Average Klotho value” came out at 6.68 pg/mL in series [1] (pre-treatment 12 h at 5 mM, then 6 h Gentamicin sulphate 10 mM); 77.06 pg/mL in series [1] (pre-treatment 12 h at 5 mM, then 6 h Iodixanol 100 mg/ml); 140.25 pg/mL in series [1] (pretreatment 12 h at 5 mM, then 6 h H2O2 0.1 mM).

For the compound `OO` [H2O2], the “Cell viability (MTT test)” value in series [2] is “significant reduction in cell viability”. Also, the “Lowest concentration able to induce a statistically significant reduction in Klotho” value in series [1] (6 hours exposure of primary tubule cells) was 0.1 mM. Also, the “Average Klotho value” in series [1] (H2O2 6 h alone (0.1 mM), no pretreatment) came to 55.42 pg/mL.

`CC(=O)N(CC(O)CN(C(C)=O)c1c(I)c(C(=O)NCC(O)CO)c(I)c(C(=O)NCC(O)CO)c1I)c1c(I)c(C(=O)NCC(O)CO)c(I)c(C(=O)NCC(O)CO)c1I` (centres unmarked) [Iodixanol]: the “Change in Klotho compared to the basal condition” value in series [1] (Iodixanol contrast medium only, 6 hours) is on record as “drastic reduction in Klotho”. For the same compound, in series [1] (Iodixanol 100 mg/ml 6 h alone), the “Average Klotho value” turned out to be 0 pg/mL.

The values above are taken from patent publication US12622887B2 (priority 2019, dated 2026).
